Measurements reported in patent US7767659B2, “Synthesis of naturally occurring ecteinascidins and related compounds” (Pharma Mar, S.A., priority 2002, dated 2010).
Read-outs that look alike come from different tables or passages of the source.

How the values were obtained:
HeLa-APL = assay: Inhibition of cells growth by colorimetric assay (SRB); details: Homo sapiens, 48 h; for GI50: read-out: HELA-APL GI50; for CC50: read-out: HELA-APL LC50; for IC (TGI): read-out: HELA-APL TGI
In short: (§1)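 Colorimetric SRB read (490 nm) on triplicate wells after 48 h at 37 °C, 5% CO2. Dose range 10 to 10^−8 μg/ml; 5×10^3 cells/well pre-attached 18 h.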

SK-MEL-28 = assay: as above; details: Homo sapiens, SK-MEL-28, 48 h
In short: as §1

LoVo-Dox = assay: as above; details: Homo sapiens, 48 h; for GI50: read-out: LOVO-DOX GI50; for CC50: read-out: LOVO-DOX LC50; for IC (TGI): read-out: LOVO-DOX TGI
In short: as §1

SK-BR-3 = assay: as above; details: Homo sapiens, SK-BR-3, 48 h; for GI50: read-out: SK-BR3 GI50; for CC50: read-out: SK-BR3 LC50; for IC (TGI): read-out: SK-BR3 TGI
In short: as §1

IGROV-ET = assay: as above; details: Homo sapiens, 48 h; for GI50: read-out: IGROV-ET GI50; for CC50: read-out: IGROV-ET LC50; for IC (TGI): read-out: IGROV-ET TGI
In short: as §1

K-562 = assay: as above; details: Homo sapiens, K562, 48 h; for GI50: read-out: K562 GI50; for CC50: read-out: K562 LC50; for IC (TGI): read-out: K562 TGI
In short: as §1

LNCaP = assay: as above; details: Homo sapiens, LNCaP, 48 h
In short: as §1

IGROV-1 = assay: as above; details: Homo sapiens, IGROV-1, 48 h; for GI50: read-out: IGROV GI50; for CC50: read-out: IGROV LC50; for IC (TGI): read-out: IGROV TGI
In short: as §1

PANC-1 = assay: as above; details: Homo sapiens, PANC-1, 48 h; for GI50: read-out: PANC-1 GI50; for CC50: read-out: PANC-1 LC50; for IC (TGI): read-out: PANC-1 TGI
In short: as §1

DU-145 = assay: as above; details: Homo sapiens, DU-145, 48 h
In short: as §1

HeLa = assay: as above; details: Homo sapiens, HeLa, 48 h; for GI50: read-out: HELA GI50; for CC50: read-out: HELA LC50; for IC (TGI): read-out: HELA TGI
In short: as §1

A-549 = assay: cells; details: Homo sapiens, A549, 48 h
In short: as §1

HT-29 = assay: cells; details: Homo sapiens, HT-29, 48 h
In short: as §1

LoVo = assay: cells; details: Homo sapiens, LoVo, 48 h; for GI50: read-out: LOVO GI50; for CC50: read-out: LOVO LC50; for IC (TGI): read-out: LOVO TGI
In short: as §1

C=CCN1[C@@H]2c3c(cc(C)c(OC)c3OC(=O)OC(C)(C)C)C[C@H]1[C@H](C#N)N1C2[C@@H]2SC[C@]3(NCCc4cc(OC(=O)OC(C)(C)C)c(OC)cc43)C(=O)OC[C@H]1c1c3c(c(C)c(OC(C)=O)c12)OCO3 (stereo partly drawn) [compound 45]
GI50 (HeLa-APL): 28.4 nM | CC50 (HeLa-APL): 783 nM | IC (TGI) (HeLa-APL): 121 nM | GI50 (SK-MEL-28; read-out: MEL-28 GI50): 117 nM | CC50 (SK-MEL-28; read-out: MEL-28 LC50): 689 nM | IC (TGI) (SK-MEL-28; read-out: MEL-28 TGI): 285 nM | GI50 (LoVo-Dox): 479 nM | CC50 (LoVo-Dox): 10000 nM | IC (TGI) (LoVo-Dox): 3140 nM | GI50 (SK-BR-3): 2.83 nM | CC50 (SK-BR-3): 133 nM | IC (TGI) (SK-BR-3): 7.56 nM | GI50 (IGROV-ET): 86.5 nM | CC50 (IGROV-ET): 10000 nM | IC (TGI) (IGROV-ET): 497 nM | GI50 (K-562): 17.6 nM | CC50 (K-562): 10000 nM | IC (TGI) (K-562): 150 nM | GI50 (LNCaP; read-out: LNCAP GI50): 3.83 nM | CC50 (LNCaP; read-out: LNCAP LC50): 51.5 nM | IC (TGI) (LNCaP; read-out: LNCAP TGI): 17.3 nM | GI50 (IGROV-1): 56.9 nM | CC50 (IGROV-1): 10000 nM | IC (TGI) (IGROV-1): 392 nM | GI50 (PANC-1): 229 nM | CC50 (PANC-1): 10000 nM | IC (TGI) (PANC-1): 1240 nM | GI50 (DU-145; read-out: DU145 GI50): 35.9 nM | CC50 (DU-145; read-out: DU145 LC50): 10000 nM | IC (TGI) (DU-145; read-out: DU145 TGI): 103 nM | GI50 (HeLa): 16.4 nM | CC50 (HeLa): 79.7 nM | IC (TGI) (HeLa): 36.2 nM | GI50 (A-549; read-out: A549 GI50): 162 nM | CC50 (A-549; read-out: A549 LC50): 1500 nM | IC (TGI) (A-549; read-out: A549 TGI): 413 nM | GI50 (HT-29; read-out: HT29 GI50): 83.6 nM | CC50 (HT-29; read-out: HT29 LC50): 10000 nM | IC (TGI) (HT-29; read-out: HT29 TGI): 1410 nM | GI50 (LoVo): 130 nM | CC50 (LoVo): 614 nM | IC (TGI) (LoVo): 283 nM

CCCCCCCCCCCCCCCC(=O)NC1CS[C@@H]2c3c(OC(C)=O)c(C)c4c(c3[C@H](COC1=O)N1C2[C@@H]2N[C@@H](Cc3cc(C)c(OC)c(O)c32)[C@@H]1O)OCO4 (stereo partly drawn) [compound 38]
GI50 (HeLa-APL): 295 nM | CC50 (HeLa-APL): 1020 nM | IC (TGI) (HeLa-APL): 549 nM | GI50 (SK-MEL-28; read-out: GI50 MEL-28): 272 nM | CC50 (SK-MEL-28; read-out: LC50 MEL-28): 860 nM | IC (TGI) (SK-MEL-28; read-out: TGI MEL-28): 483 nM | GI50 (LoVo-Dox): 1540 nM | CC50 (LoVo-Dox): 6150 nM | IC (TGI) (LoVo-Dox): 3080 nM | GI50 (SK-BR-3): 194 nM | CC50 (SK-BR-3): 1070 nM | IC (TGI) (SK-BR-3): 457 nM | GI50 (IGROV-ET): 365 nM | CC50 (IGROV-ET): 1480 nM | IC (TGI) (IGROV-ET): 675 nM | GI50 (K-562): 193 nM | CC50 (K-562): 1540 nM | IC (TGI) (K-562): 510 nM | GI50 (LNCaP; read-out: GI50 LNCAP): 338 nM | CC50 (LNCaP; read-out: LC50 LNCAP): 796 nM | IC (TGI) (LNCaP; read-out: TGI LNCAP): 518 nM | GI50 (IGROV-1): 381 nM | CC50 (IGROV-1): 4180 nM | IC (TGI) (IGROV-1): 786 nM | GI50 (PANC-1): 616 nM | CC50 (PANC-1): 4500 nM | IC (TGI) (PANC-1): 1380 nM | GI50 (DU-145; read-out: GI50 DU145): 286 nM | CC50 (DU-145; read-out: LC50 DU145): 1110 nM | IC (TGI) (DU-145; read-out: TGI DU145): 564 nM | GI50 (HeLa): 317 nM | CC50 (HeLa): 935 nM | IC (TGI) (HeLa): 545 nM | GI50 (A-549; read-out: GI50 A549): 473 nM | CC50 (A-549; read-out: LC50 A549): 4710 nM | IC (TGI) (A-549; read-out: TGI A549): 1420 nM | GI50 (HT-29; read-out: GI50 HT29): 653 nM | CC50 (HT-29; read-out: LC50 HT29): 4730 nM | IC (TGI) (HT-29; read-out: TGI HT29): 1670 nM | GI50 (LoVo): 358 nM | CC50 (LoVo): 2510 nM | IC (TGI) (LoVo): 793 nM
